Results reported in patent US12286442B2, “Methods and materials for increasing transcription factor eb polypeptide levels” (University of Pittsburgh—Of the Commonwealth System of …, priority 2019, dated 2025).
“Also recorded” adds a separate entry of the source.

Key:
[1] = tested on: TFEB; assay: Confocal imaging of TFEB localization in MLE12 cells stably expressing TFEB-EGFP; type: cell-based, murine; conditions: dose dependent, 18 hours / 24 hours
Method: (§1) FIGS. 2A-C. BC1753 increases TFEB polypeptide levels. A. The structure of BC1753 is provided. B. MLE12 cells stably expressing TFEB-EGFP were treated with the indicated amounts of BC1753 for 24 hours before immunoblotting for TFEB-GFP and β-actin. C. MLE12 cells stably expressing TFEB-EGFP were treated with the indicated amounts of BC1753 for 24 hours before imaging by confocal microscopy (scale bar=10 μm).
(§2) BC1753 (FIG. 2A) was tested for its ability to increase TFEB polypeptide levels. Briefly, murine lung epithelial cells (MLE12) stably expressing TFEB-EGFP were treated with BC1753 in a dose dependent manner for 18 hours. Cells were then collected and assayed by immunoblotting for TFEB-GFP protein levels (FIG. 2B). Murine lung epithelial cells (MLE12) stably expressing TFEB-EGFP were treated with […] in a dose dependent manner for 18 hours. Cells were then fixed with 4% PFA followed by DAPI staining. TFEB localization was imaged on the GFP channel along with the DAPI signal using a Nikon A1 confocal microscope (FIG. 2C).

[2] = tested on: TFEB; assay: Immunoblotting for TFEB-GFP protein levels in MLE12 cells stably expressing TFEB-EGFP; type: cell-based, murine; conditions: dose dependent, 18 hours / 24 hours
Method: as §1, §2

[3] = tested on: TFEB; assay: High content screen measuring TFEB nuclear accumulation (TFEB nuclear/cytosol ratio) in BEAS-2B cells stably expressing TFEB-EGFP; type: cell-based, human; conditions: 18 hours incubation
Procedure, shortened: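 Readout: lowest compound concentration giving a 25% rise in nuclear/cytosol TFEB-GFP ratio, from DAPI-masked nuclear and mask-expanded cytosolic signals. Cells (BEAS-2B, TFEB-EGFP stable, ~2300–2500/well) rested 8 hours, then treated 18 hours with compound serial dilutions in 2% FBS medium before PFA fixation and DAPI staining.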

[4] = tested on: liver lysosomes; assay: Liver lysosomal activity in mice (dextran blue confocal microscopy, Lamp2 immunostaining); type: in vivo; conditions: female C57BL6 mice, i.p. for 4 days, 50 mg/kg/d or 30 mg/kg/day; for liver lysosomal dextran blue signal (lysosomal number and activity): liver 24 hours after i.v. dextran blue; for liver Lamp2 staining: liver slides
Method: FIG. 7. Compound 15 increases liver lysosomal activity. Female C57BL6 mice were intraperitoneally (i.p.) injected with Cmpd. 15 (50 mg/kg/d) for 4 days. Mice were then intravenously (i.v.) injected with dextran blue. 24 hours later, mice were sacrificed, and livers were removed and imaged through confocal microscopy. White fluorescent signal indicates dextran blue within lysosome and provides a measure of lysosomal number and activity within the hepatic tissue (Upper panels). […] Scale bar: 50 microns.
Female C57BL6 mice were i.p. injected with Compound 15 (30 mg/kg/day) for 4 days. Mice were then i.v. injected with dextran blue. 24 hours later, mice were sacrificed, and liver samples were removed and imaged through confocal microscopy.

[5] = tested on: BEAS-2B cells; assay: Toxicity: compound concentration needed to induce greater than 50 percent of cell loss; type: cell-based, human; conditions: 18 hours incubation
Procedure, shortened: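 Reported value is the concentration giving greater than 50 percent cell loss, grouped into bins (≥25 μM; between 1 and 25 μM; ≤1 μM as "+++"). Measured by high-content imaging of DAPI-stained BEAS-2B TFEB-EGFP cells fixed after 18 h compound exposure.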

[6] = tested on: b-hexosaminidase (a lysosomal enzyme); assay: Secreted b-hexosaminidase activity normalized with cellular b-hexosaminidase activity in Beas2B cells; type: cell-based, human; conditions: indicated concentration, 18 hours
Method: (§3) FIGS. 5A-B. Compound 133 and Compound 115 increased lysosomal protein expression and secretion. A. Beas2B cells were treated with Cmpd. 133 at 10 μM for 24 hours. Cells then were collected and assayed for lysosomal protein gene expression. B. Beas2B cells were treated with Cmpd. 115 at the indicated concentration for 18 hours. Secreted b-hexosaminidase activity (a lysosomal enzyme) then was measured and normalized with cellular b-hexosaminidase activity.

[7] = tested on: lysosomal protein gene expression; assay: Lysosomal protein gene expression in Beas2B cells; type: cell-based, human; conditions: 10 μM for 24 hours
Method: as §3

[8] = tested on: Beas2B cells; assay: Lysosome quantity in Beas2B cells (light microscope, lysotracker Red confocal microscopy); type: cell-based, human; conditions: 18 hours, 1 μM or indicated concentrations
Method: FIGS. 4A-B. Compound 178 (BC1834) and Compound 160 (BC18200) increased lysosome quantity. A. Beas2B cells were treated with Cmpd. 178, Cmpd. 160, or the GSK3b inhibitor TWS119 (1 μM for 18 hours). Cells were then imaged through light microscope. B. Beas2B cells were treated with Cmpd. 178 for 18 hours at the indicated concentrations. Cells were then stained with lysotracker Red (100 nM) for 30 minutes. Cells then were washed and imaged through confocal microscopy.

[9] = tested on: GFP-72Q (Huntingtin); assay: GFP-Huntingtin levels in SH5Y cells stably transfected with GFP-72Q (confocal imaging, immunoblot); type: cell-based; conditions: SH5Y cells stably expressing GFP-Huntingtin (72Q), indicated amounts, 24 hours
Method: FIGS. 6A-B. Compound 178 reduced Huntingtin gene expression. A-B. SH5Y cells stably transfected with GFP-72Q (Huntingtin) were treated with the indicated amounts of Cmpd. 178 for 24 hours. Cells then were imaged with a confocal microscope or collected and assayed for protein expression using a GFP-Huntingtin immunoblot.
Compound 178 (BC1834) was tested for the ability to reduce Huntingtin polypeptide levels within cells. Briefly, Compound 178 was administered to SH5Y cells stably expressing GFP-Huntingtin (72Q).

COc1ccc(-n2c(=O)c3ccc(C(=O)NCCc4ccccc4)cc3n(CC(=O)Nc3ccc(C)cc3)c2=O)cc1 [BC1753]
nuclear TFEB polypeptide accumulation (confocal microscopy) [1]: increased
total TFEB polypeptide levels within cells (TFEB-GFP immunoblot) [2]: increases; also recorded: drastically increased

c1ccc2c(Nc3ccc4ccncc4c3)nc(-c3ccncc3)nc2c1 [Compound 13]
efficacy (minimal compound concentration needed to increase TFEB nuclear/cytosol ratio by 25%) [3]: + (“+” equals >25 μM)
liver lysosomal dextran blue signal (lysosomal number and activity) [4]: drastically increased
liver Lamp2 staining [4]: drastically increased
toxicity (compound concentration needed to induce greater than 50 percent of cell loss) [5]: + (cell loss of greater than 50 percent at a concentration that equals or is greater than 25 μM was represented as)

c1ccc2c(Nc3ccc4[nH]ccc4c3)nc(-c3ccncc3)nc2c1 [Compound 15]
efficacy (minimal compound concentration needed to increase TFEB nuclear/cytosol ratio by 25%) [3]: +++ (“+++” equals ≤1 μM)
liver lysosomal dextran blue signal (lysosomal number and activity) [4]: increases
liver Lamp2 staining [4]: enhanced signals
toxicity (compound concentration needed to induce greater than 50 percent of cell loss) [5]: + (cell loss of greater than 50 percent at a concentration that equals or is greater than 25 μM was represented as)

COc1cccc2c(Nc3ccc4[nH]ccc4c3)nc(-c3ccncc3)nc12 [Compound 115]
secretion of the lysosomal enzyme beta hexosaminidase [6]: increased
efficacy (minimal compound concentration needed to increase TFEB nuclear/cytosol ratio by 25%) [3]: + (“+” equals >25 μM)
toxicity (compound concentration needed to induce greater than 50 percent of cell loss) [5]: + (cell loss of greater than 50 percent at a concentration that equals or is greater than 25 μM was represented as)

c1cnc2nc(-c3ccncc3)nc(Nc3ccc4c(c3)OCO4)c2c1 [Compound 133]
efficacy (minimal compound concentration needed to increase TFEB nuclear/cytosol ratio by 25%) [3]: +++ (“+++” equals ≤1 μM)
lysosomal protein expression [7]: increased
toxicity (compound concentration needed to induce greater than 50 percent of cell loss) [5]: + (cell loss of greater than 50 percent at a concentration that equals or is greater than 25 μM was represented as)

c1ccc2c(Nc3ccc4[nH]ncc4c3)nc(-c3ccncc3)nc2c1 [Compound 160]
secretion of the lysosomal enzyme beta hexosaminidase [6]: increase
efficacy (minimal compound concentration needed to increase TFEB nuclear/cytosol ratio by 25%) [3]: +++ (“+++” equals ≤1 μM)
lysosomal protein expression [7]: increase
toxicity (compound concentration needed to induce greater than 50 percent of cell loss) [5]: ++ (cell loss of greater than 50 percent at a concentration less than 25 μM and greater than 1 μM was represented as)
lysosome quantity [8]: increase

Fc1cccc(Nc2nc(-c3ccncc3)nc3ccccc23)c1 [Compound 178]
secretion of the lysosomal enzyme beta hexosaminidase [6]: increase
efficacy (minimal compound concentration needed to increase TFEB nuclear/cytosol ratio by 25%) [3]: +++ (“+++” equals ≤1 μM)
lysosomal protein expression [7]: increase
GFP-Huntingtin polypeptide levels [9]: dose dependently reduced
toxicity (compound concentration needed to induce greater than 50 percent of cell loss) [5]: + (cell loss of greater than 50 percent at a concentration that equals or is greater than 25 μM was represented as)
lysosome quantity [8]: increase

CC(=O)Nc1ccc(Nc2nc(-c3ccncc3)cc3ncccc23)cc1O [Compound 401]
efficacy (minimal compound concentration needed to increase TFEB nuclear/cytosol ratio by 25%) [3]: +++ (“+++” equals ≤1 μM)
toxicity (compound concentration needed to induce greater than 50 percent of cell loss) [5]: + (cell loss of greater than 50 percent at a concentration that equals or is greater than 25 μM was represented as)

c1cnc2cc(-c3ccncc3)nc(Nc3ccc4nc(C5CCC5)sc4c3)c2c1 [Compound 402]
efficacy (minimal compound concentration needed to increase TFEB nuclear/cytosol ratio by 25%) [3]: +++ (“+++” equals ≤1 μM)
toxicity (compound concentration needed to induce greater than 50 percent of cell loss) [5]: + (cell loss of greater than 50 percent at a concentration that equals or is greater than 25 μM was represented as)
